{"source": "patent US20140343017A1", "about": "“PYRROLE COMPOUND” (Kabushiki Kaisha Yakult Honsha, priority 2012, published 2014)", "key": {"[1]": {"system": "PV2-7 xenograft tumor", "test": "Antitumor effect on growth of PV2-7 xenograft tumor (in vivo)", "design": "species or system BALB/c nude mice", "conditions": "tail vein, once a week, three times in total (Days 1, 8, and 15); FIG. 5", "experimental": "The mice were further raised for approximately 1 week to 10 days and divided into groups (4 or 5 mice per group) having equal estimated tumor volumes at the point in time when the tumor size reached approximately 100 to 200 mm^3 (Day 1). Each administration sample was administered at a dose of 10 mL/kg into the tail vein of the mice. In an administration schedule, each sample was administered once a week, three times in total (Days 1, 8, and 15)."}, "[2]": {"system": "Human non-small cell lung cancer NCI-H460 cells", "test": "Inhibitory effect on growth of PTX-resistant tumor cell line, parent line (in vitro)", "assay_type": "cell-based", "conditions": "96 hours culture, WST-8", "procedure": "Each compound of the present invention was studied for its effect on the growth of a tumor cell line having a PTX resistance mechanism different from that attributed to the high expression of P-glycoprotein. Human non-small cell lung cancer NCI-H460 cells were exposed to 1 nM paclitaxel (PTX) and 10 μM verapamil at the same time. Only the PTX concentration was increased to 2, 3, 4, 5, and 7 nM in order over approximately 6 months to establish PTX-resistant H460/PV2-7 cells (PV2-7). […] As for the PTX resistance mechanism different from that attributed to the high expression of P-glycoprotein, an isotype called Class III β-tubulin (TUBB3), which is one isotype of […], has been reported to be highly expressed in PTX-resistant established lines in vitro or in clinical samples from patients having resistance to PTX therapy.\nThe PV2-7 cells and the parent line NCI-H460 cells were suspended in a medium and inoculated at a cell density of 1000 cells/50 μL/well to a 96-well plate. After overnight culture, each compound diluted 2-fold (final concentration) was added thereto at a concentration of 50 μL/well, and the cells were cultured for 96 hours. After the completion of culture, WST-8 (Seikagaku Corp.) was added thereto at a concentration of 10 μL/well, and the cells were cultured at 37° C. for approximately 1 hour under 5% CO2 conditions, followed by measurement of absorbance at 450 nm."}, "[3]": {"system": "multidrug-resistant line MES-SA/Dx5 cells", "test": "Inhibitory effect on growth of multidrug-resistant cell line (in vitro)", "assay_type": "cell-based, human", "source_text": "(§1) Each compound of the present invention was studied for its effect on the growth of a multidrug-resistant cell line. A drug efflux pump called P-glycoprotein is well known to be involved in the drug resistance mechanism of the multidrug-resistant line MES-SA/Dx5 used in this experiment. Accordingly, in this experiment, paclitaxel and vincristine, which are proven substrates of P-glycoprotein, were used as control drugs. Human uterus cancer MES-SA cells and their multidrug-resistant line MES-SA/Dx5 cells were suspended in a medium and inoculated at a cell density of 2000 cells/50 μL/well to a 96-well plate. After overnight culture, each test sample diluted with a medium was added thereto at a concentration of 50 μL/well, and the cells were further cultured for 48 hours. After the completion of culture, WST-8 was added thereto at a concentration of 10 μL/well, and the cells were cultured at 37° C. for approximately 1 hour under 5% CO2 conditions, followed by measurement of absorbance at a wavelength of 450 nm. […] The resistance rate was calculated according to the following expression:\n(§2) Resistance rate=IC50 value (MES-SA/Dx5)/IC50 value (MES-SA)"}, "[4]": {"system": "Human uterus cancer MES-SA cells", "test": "Inhibitory effect on growth of multidrug-resistant cell line, parent line (in vitro)", "assay_type": "cell-based", "conditions": "48 hours culture, WST-8", "source_text": "as §1, §2"}}}
{"smiles": "CC(=O)O[C@H]1C(=O)[C@@]2(C)[C@H]([C@H](OC(=O)c3ccccc3)[C@]3(O)C[C@H](OC(=O)[C@H](O)[C@@H](NC(=O)c4ccccc4)c4ccccc4)C(C)=C1C3(C)C)[C@]1(OC(C)=O)CO[C@@H]1C[C@@H]2O", "note": "[Paclitaxel, paclitaxel, reference compound]", "values": [{"measurement": "antitumor effect on PV2-7 cell-transplanted mice", "setting": "[1]", "value": "hardly effective"}, {"measurement": "IC50", "setting": "[2]", "value": 3.5, "unit": "nM"}, {"measurement": "IC50", "setting": "[3]; Homo sapiens, MES-SA/Dx5 cells, 48 hours culture, WST-8", "value": 3700, "unit": "nM"}, {"measurement": "Resistance rate", "setting": "[3]; IC50 value (MES-SA/Dx5)/IC50 value (MES-SA)", "value": 243.3}, {"measurement": "IC50", "setting": "[4]", "value": 15.2, "unit": "nM"}]}
